# “Also recorded” adds a separate entry of the source.
# System: mice with gallstones formed due to a high-cholesterol diet
# Experiment: Treatment of cholesterol gallstones in mice with gallstones formed by a high-cholesterol (lithogenic) diet, 12 weeks of drug administration
# Assay type: in vivo, C57BL/6J male mice
# Procedure: An overall schematic diagram of the animal experiment is as illustrated in FIG. 1. This will be described below in more detail. C57BL/6J male mice were purchased from Central Lab. Animal Inc. The mice were allowed to have a 4-week compliance period under a condition of controlled light (a cycle of 12-hour light and 12-hour darkness in which darkness is from 6:30 pm to 6:30 am), temperature (22±4° C.), and humidity (50%±20%). The mice had ad libitum access to water (autoclaved distilled water) and were fed commercial feed (Scientific Animal Food & Engineering/+40RMM) containing 2.9% fat, 15.2% protein, and 60.7% carbohydrate. In addition, a lithogenic diet (DYET #102136; Dyets, Inc., Bethlehem, Pa., USA) containing cholesterol (10 g/kg) and cholic acid (5 g/kg) was given for 8 weeks, so that mice with gallstones formed due to a high-cholesterol diet were created.
# The mice with gallstones formed due to a high-cholesterol diet were divided into the following groups and experiments were conducted for 12 weeks:
# Each of the mice of the control group (1) was administered, using a sonde, 0.3 ml of a mixture of 0.75% Tween 80 and distilled water. The mice of the groups (2) to (4) were administered, using a sonde, a product obtained by diluting 12.5 mg/kg/day of UDCA and 51 mg/kg/day of omega-3 fatty acid in 0.75% Tween 80. […]
# After 12 weeks of drug administration, animals were sacrificed and gallbladder tissue was obtained. […] After the high-cholesterol diet, body weight and liver weight were measured; and after the normal diet and therapeutic agent administration, body weight and liver weight were measured (FIG. 2). […]
# The size of gall stones in the gallbladder tissue obtained in Example 1 was analyzed on the basis of FIG. 4 (FIGS. 5 and 6). […]
# Changes in the weight of liver gallstones after the high-cholesterol diet (base) and after the therapeutic agent administration were analyzed (FIGS. 7 and 8).
# [1] = Example 2, anatomical changes before and after 12 weeks of drug administration, normal diet
smiles,measurement,setting,value
"C[C@H](CCC(=O)O)[C@H]1CC[C@H]2[C@@H]3[C@@H](O)C[C@@H]4C[C@H](O)CC[C@]4(C)[C@H]3CC[C@]12C [UDCA, 3α,7β-dihydroxy-5β-cholanoic acid]",amount of gallstones after administration (FIG. 3),[1],insignificantly decreased
same,size of gallstones after administration (FIG. 3),[1],slightly decreased; also recorded: insignificant changes
same,"size of gallstones, analysed on the classification chart of FIG. 4 (FIGS. 5 and 6)","Example 3, after high-cholesterol diet vs after therapeutic agent administration",no change in size

# Reference: patent US20200376003A1, “PHARMACEUTICAL COMPOSITION FOR PREVENTING OR TREATING CHOLESTEROL GALLSTONE COMPRISING URSODEOXYCHOLIC ACID (UDCA) AND OMEGA-3 FATTY ACID, AND PROCESS FOR PRODUCING THE SAME” (INDUSTRY-ACADEMIC COOPERATION FOUNDATION, YONSEI UNIVERSITY, priority 2019, published 2020)
